Experimental data taken from ChEMBL document CHEMBL1123115, “Synthesis and antiviral activity of 11-azapentacyclo[6.2.1.0.0.0]decane” (J Med Chem, 1985).

Legend:
[1] = test system: Human alphaherpesvirus 1; experiment: Effect on herpes simplex virus HSV-1; Ineffective; type: functional, organism-based
[2] = test system: Human alphaherpesvirus 2; experiment: Effect on herpes simplex virus HSV-2; Ineffective; type: functional, organism-based

**Q.** Which Activity [1] does the source give for `C1C2C3CC4C1C1C2NC3C41` (configuration not stated) here?
**A.** Its Activity is “Ineffective”.

**Q.** What about the Activity [2] of the same molecule?
**A.** Its Activity is “Ineffective”.
